# Patent US20150038435A1, “N-TERMINALLY MODIFIED OLIGOPEPTIDES AND USES THEREOF” (Novo Nordisk A/S, priority 2012, published 2015)
# Starred links: 1 amine or outer side, 2 acyl side, 3 side chain; linkers in the order of their positions; H or OH if unused. Non-standard residues stand in square brackets, D forms with d. Residues, ends and D or L forms follow the SMILES beside them. *: point of attachment. γGlu = O=C(O)[C@H](CCC(=O)[*:2])N[*:1]; Palmitoyl = CCCCCCCCCCCCCCCC(=O)*; Myristoyl = CCCCCCCCCCCCCC(=O)*
# B1: Soya bean trypsin inhibitor: soya bean trypsin inhibitor (Kunitz type, SBTI), protease inhibitor described in the public domain (protein, UniProt P01070 25-205, looked up)
# Trypsin inhibitor A: DFVLDNEGNPLENGGTYYILSDITAFGGIRAAPTGNERCPLTVVQSRNELDKGIGTIISSPYRIRFIAEGHPLSLKFDSFAVIMLCVGIPTEWSVVEDLPEGPAVKIGENKDAMDGWFRLERVSDDEFNNYKLVFCPQQAEDDKCGDIGISIDHDDGTRRLVVSKNKPLVVQFQKLDKESL
# Legend:
# [1] = test system: Trypsin; test: Inhibition of enzymatic degradation of a model GLP-1 (FRET substrate) by trypsin; assay type: biochemical; conditions: for Slope of the initial increase in fluorescence obtained during incubation with 0.001 mg/ml Trypsin: compound 1 mM; for EC50: read-out: EC50 Trypsin (0.001 mg/ml), 0.001 mg/ml trypsin, 37° C.
# Method in brief: (§1)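 MCA/DNP-labelled model GLP-1 FRET substrate (10 μl of 100 μM stock) in Dulbecco's PBS at 37° C with varying acylated peptide; fluorescence (ex 320/em 405 nm) read every minute for ≥30 min. Initial slopes from linear regression, duplicates averaged; EC50 by sigmoidal logistic fit of slope vs concentration.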
# [2] = Hydrophobicity: retention time during reverse phase HPLC; assay type: physicochemical; conditions: Acquity CSH C18; pH 7.2 buffer/CH3CN gradient; 40° C.
# From the text: The retention time (RT) during reverse phase HPLC was taken as a measure of hydrophobicity of an N-terminally modified peptide or oligopeptide of the invention, where the connection is: The longer the RT, the more hydrophobic N-terminally modified peptide or oligopeptide. The following running conditions were applied during HPLC analysis:
# Buffer B: 70% (v/v) aq. CH3CN
# [3] = Stability of N-terminally acylated peptides or oligopeptides in GI juice; assay type: in vitro ADME; conditions: GI juice (jejunum extract); degradation of the compound itself in jejunum extract from rat; read-out: t 1/2 in rat GI juice
# Protocol: (§2) 96 well plates were coated by incubating with 0.4% Bovine serum albumin (BSA) solution for minimum of 60 min. To each well, 210 μl of buffer (Hank's balanced salt solution-4-(2-hydroxyethyl)-1-piperazineethanesulfonic acid (HBSS-HEPES) buffer) with 0.005% Tween 20 and 0.001% BSA, pH 6.5 precipitated with 3 vol. cold 96% ethanol (EtOH) w. 1% TFA), 30 μl of a substrate (100 μM insulin analogue or GLP-1 analogue in buffer) and 30 μl of N-terminally acylated peptide or oligopeptide of the invention (10 mM) were added. The plates were pre-incubated (before adding GI juice) for 60 min at 37° C. After addition of 30 μl of GI juice (10-times diluted in buffer), the plates were incubated for 60 min/37° C. on shaker. Samples (40 μl) were taken at 0, 5, 10, 20, 30 and 60 min, stopped with 3 vol. cold 96% EtOH w. 1% TFA and spun down in plates (4500 rpm for 10 min). Samples were diluted 5 times with the buffer prior to LC-MS analysis. Standard samples (0.1, 0.5, 1.0, 5.0, 10.0 μM) were prepared and treated as the samples. Standard curve was analysed both at the beginning and the end of the sequence. Two replicates of each tested conditions were included. Ion suppression was assessed by analyzing a standard at 1 μM and at 10 μM with 1 mM inhibitor present. Intact insulin or GLP-1 analoues were determined at each sample. The results were plotted against the incubation time. Half-lives of the insulin or GLP-1 analogues were determined by nonlinear regression of the results using, for example Graph Pad Prism. The half-lives were expressed relative to the half-live of the insulin or GLP-1 analogue without inhibitor present by dividing the half-lives obtained in the presence of inhibitor with those obtained in the absence of inhibitors. GI juice was prepared from male Sprague Dawley rats (200-250 g) by excising approximately 20 cm piece of mid jejunum and rinsing the inside with 2.5 ml 0.9% sodium chloride solution. The sodium chloride solution was collected in a centrifuge tube, pooled from all rats (20) and centrifuged at 4500 rpm./10 min/4° C. The supernatant was aliquoted in tubes and stored at −80° C.
# Degradation of the N-terminally fatty acid modified peptide or oligopeptide of the invention themselves in jejunum extract from rat (GI juice) and determination of half-lives, was measured as described above (example 200).
# [4] = test system: Chymotrypsin; test: Inhibition of enzymatic degradation of a model GLP-1 (FRET substrate) by chymotrypsin; assay type: biochemical; conditions: for Slope of the initial increase in fluorescence obtained during incubation with 0.001 mg/ml Chymotrypsin: compound 1 mM; for EC50: read-out: EC50 Chymotrypsin (0.001 mg/ml), 0.001 mg/ml chymotrypsin, 37° C., ± standard error if at least 3 measurements
# Method in brief: as §1
# [5] = test system: GI juice; test: Inhibition of GI juice degradation of insulin analogue and GLP-1 analogue; assay type: biochemical; conditions: rat GI juice
# Protocol: as §2, with “To each well, 210 μl of buffer (Hank's balanced salt solution-4-(2-hydroxyethyl)-1-piperazineethanesulfonic acid (HBSS-HEPES) buffer) with 0.005% Tween 20 and 0.001% BSA, pH 6.5 precipitated with 3 vol. cold 96% ethanol (EtOH) w.” left out, “Samples (40 μl) were taken at 0, 5, 10, 20, 30 and 60 min, stopped with 3 vol. cold 96% EtOH w.” left out, “Half-lives of the insulin or GLP-1 analogues were determined by nonlinear regression of the results using, for example Graph Pad Prism.” left out
# A14E, B25H, B29K(N(eps)Octadecanedioyl-γGlu-OEG-OEG), desB30 human insulin and N-epsilon26-[2-(2-{2-[2-(2-{2-[(S)-4-Carboxy-4-(17-carboxyheptadecanoylamino)-butyrylamino]ethoxy}ethoxy)acetylamino]ethoxy}ethoxy)acetyl][Aib8,Arg34]GLP-1-(7-37) were used as standards in this assay.
# For experiments repeated more than two times, standard deviation is given
Molecule,Slope of the initial increase in fluorescence obtained during incubation with 0.001 mg/ml Trypsin [1],EC50 [1],RT (retention time during reverse phase HPLC as a measure of hydrophobicity) [2],half-life [3],Slope of the initial increase in fluorescence obtained during incubation with 0.001 mg/ml Chymotrypsin [4],EC50 [4],Half Life fold increase (over solution w/o N-terminally acylated (oligo)peptide) ([5]; compound 1 mM),"Half Life of insulin analogue ([5]; compound 1 mM, 37° C.)","Half Life of GLP-1 analogue ([5]; compound 1 mM, 37° C.)","Half Life of insulin analogue ([5]; inhibitor 0.1%, ± standard deviation)"
"CCCCCCCCCCCCCC(=O)N[C@H](C)C(=O)N[C@H](C)C(=O)N1CCC[C@@H]1C(=O)N[C@H](Cc1ccccc1)C(=O)O [Example 2, N-tetradecanoyl-DAla-DAla-DPro-DPhe-OH] (Myristoyl-[dA][dA][dP][dF]-OH)",0.15,112 µM,9.74 min,610 min,0.05,85 µM,,,,
"CCCCCCCCCCCCCC(=O)N[C@@H](CCC(=O)O)C(=O)N[C@@H](C)C(=O)N[C@@H](C)C(=O)N1CCC[C@H]1C(=O)N[C@@H](Cc1ccccc1)C(=O)O [Example 13, N-tetradecanoyl-Glu-Ala-Ala-Pro-Phe-OH] (Myristoyl-EAAPF-OH)",0.12,,5.19 min,,0.00,,3.4,7.2 min,,
"CCCCCCCCCCCCCC(=O)N[C@@H](CCC(=O)N[C@@H](C)C(=O)N1CCC[C@H]1C(=O)N[C@@H](Cc1ccccc1)C(=O)O)C(=O)O [Example 23, N-tetradecanoyl-γGlu-Ala-Pro-Phe-OH] ({Myristoyl-γGlu}-Ala-Pro-Phe-OH)",,44 µM,5.29 min,4.4 min,,144 µM,,,,
"CCCCCCCCCCCCCCCC(=O)N[C@@H](CCC(=O)N[C@@H](C)C(=O)N[C@@H](C)C(=O)N1CCC[C@H]1C(=O)N[C@@H](Cc1ccccc1)C(=O)O)C(=O)O [Example 135, N-hexadecanoyl-γGlu-Ala-Ala-Pro-Phe-OH] ({Palmitoyl-γGlu}-AAPF-OH)",,40 µM,7.5 min,,,45 µM,3.8,9.2 min,0.9 min,
"CCCCCCCCCCCCCC(=O)N[C@@H](CCC(=O)N[C@H](C)C(=O)N1CCC[C@@H]1C(=O)N[C@H](Cc1ccccc1)C(=O)O)C(=O)O [Example 148, N-tetradecanoyl-γGlu-DAla-DPro-DPhe-OH] ({Myristoyl-γGlu}-[dA]-[dP]-[dF]-OH)",,,,> 1000 min,,322 µM,,,,
"CCCCCCCCCCCCCC(=O)N[C@@H](Cc1c[nH]cn1)C(=O)N[C@@H](C)C(=O)N[C@@H](CCCNC(=N)N)C(=O)N1CCC[C@H]1C(=O)N[C@@H](Cc1ccccc1)C(=O)O [Example 178, N-tetradecanoyl-His-Ala-Arg-Pro-Phe-OH] (Myristoyl-HARPF-OH)",,102 µM,,4.5 min,,32 µM,,,,
B1,,,,,,,,,,505.3 ± 309.2 min
